Molecules are shown by their SMILES. pEC50: −log10 of the molar value.

The values that follow come from US11932658B2 (BRISTOL-MYERS SQUIBB COMPANY, priority 2016, dated 2024).

One series concerns washed platelets. As to the method: Human blood was collected in ACD (85 mM tri-sodium citrate, 78 mM citric acid, 110 mM D-glucose, pH 4.4) at a ratio of 1.4 ml per 10 ml blood. PRP was isolated by centrifugation at 170 g for 14 minutes and platelets were further pelleted by centrifugation at 1300 g for 6 minutes. Platelets were washed once with 10 ml ACD containing 1 mg/ml bovine serum albumin. Platelets were resuspended at ˜2.5×10^8/ml in Tyrode's Buffer (137 mM NaCl, 2 mM KCl, 1.0 mM MgCl2, 1 mM CaCl2), 5 mM glucose, 20 mM HEPES pH 7.4).

Series [1] addresses T1, protease-activated receptor type 4 (PAR4) (Homo sapiens, UniProt Q96RI0).
T1 sequence (Q96RI0 18-385): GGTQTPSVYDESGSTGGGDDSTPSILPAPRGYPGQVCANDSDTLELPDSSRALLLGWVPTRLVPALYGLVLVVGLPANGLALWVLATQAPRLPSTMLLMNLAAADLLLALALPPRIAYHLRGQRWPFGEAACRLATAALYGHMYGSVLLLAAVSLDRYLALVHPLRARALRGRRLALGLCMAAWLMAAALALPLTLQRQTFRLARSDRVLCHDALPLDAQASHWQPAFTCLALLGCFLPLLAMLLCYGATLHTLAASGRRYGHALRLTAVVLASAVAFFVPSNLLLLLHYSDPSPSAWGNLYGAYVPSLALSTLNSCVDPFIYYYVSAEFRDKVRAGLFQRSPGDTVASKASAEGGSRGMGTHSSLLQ
The note with it: abstract of J. Med. Chem. 44(22):3746-3749 (2001); cited from earlier work.

A further series concerns the target T2, PAR1 (Homo sapiens, UniProt P25116).
T2 construct: in the TRACER phase III trial in ACS patients; host or cells: ACS patients (clinical trial)
T2 sequence (P25116 22-425): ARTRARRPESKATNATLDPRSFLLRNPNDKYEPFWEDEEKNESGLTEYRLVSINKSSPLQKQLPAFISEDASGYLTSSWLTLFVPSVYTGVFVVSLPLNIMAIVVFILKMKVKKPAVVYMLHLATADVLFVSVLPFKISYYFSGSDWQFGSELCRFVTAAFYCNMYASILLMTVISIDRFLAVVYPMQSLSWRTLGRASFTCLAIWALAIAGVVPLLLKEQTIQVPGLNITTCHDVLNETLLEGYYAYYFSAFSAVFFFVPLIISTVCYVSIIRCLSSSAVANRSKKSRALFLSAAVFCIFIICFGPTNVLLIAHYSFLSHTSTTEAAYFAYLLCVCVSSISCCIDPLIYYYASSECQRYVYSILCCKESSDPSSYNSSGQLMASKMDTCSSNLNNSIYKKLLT
Conditions: ACS patients, TRACER phase III trial; cited from earlier work.

As a reminder, the pEC50 is the EC50 on a negative log10 scale, so that one unit is a factor of ten. Read a high pEC50 as a low EC50. In turn, `C[C@H](N)C(=O)N[C@@H](Cc1ccc(O)cc1)C(=O)N1CCC[C@H]1C(=O)NCC(=O)N[C@@H](CCCCN)C(=O)N[C@@H](Cc1ccccc1)C(=O)O` [AYPGKF] showed a pEC50 in the series on washed platelets of 4.92.

Turning to `CCOC(=O)c1ccc(-c2nn(Cc3ccccc3)c3ccccc23)cc1` [YD-3, ethyl 4-(1-benzyl-1H-indazol-3-yl)benzoate], the “Inhibition of PAR4-dependent platelet activation” value in series [1] is “selective and potent inhibitor”.

Take `CCOC(=O)N[C@@H]1CC[C@@H]2[C@@H](C1)C[C@H]1C(=O)O[C@H](C)[C@H]1[C@H]2/C=C/c1ccc(-c2cccc(F)c2)cn1` [vorapaxar]: on PAR1, the Cardiovascular events entry was “did not significantly reduce” and the “Risk of major bleeding” value was “significantly increased”.
